Data reported in US20210253582A1, “SALTS AND SOLID FORMS AND PROCESSES OF PREPARING A PI3K INHIBITOR” (Incyte Corporation, priority 2020, published 2021).

Target: T1, PI3K (Homo sapiens, UniProt O00329)
T1 construct: purchased Millipore (Bedford, Mass.)
Assay: PI3K enzyme assays (at least one assay described herein)
Format: biochemical
Conditions: according to at least one assay described herein; assay not specified
From the text: PI3-Kinase luminescent assay kit including lipid kinase substrate, D-myo-phosphatidylinositol 4,5-bisphosphate (PtdIns(4,5)P2)D (+)-sn-1,2-di-O-octanoylglyceryl, 3-O-phospho linked (PIP2), biotinylated I(1,3,4,5)P4, PI(3,4,5)P3 Detector Protein is purchased from Echelon Biosciences (Salt Lake City, Utah). AlphaScreen™ GST Detection Kit including donor and acceptor beads was purchased from PerkinElmer Life Sciences (Waltham, Mass.). PI3Kδ (p110δ/p85α) is purchased from Millipore (Bedford, Mass.). ATP, MgCl2, DTT, EDTA, HEPES and CHAPS are purchased from Sigma-Aldrich (St. Louis, Mo.).
The kinase reaction are conducted in 384-well REMP plate from Thermo Fisher Scientific in a final volume of 40 μL. Inhibitors are first diluted serially in DMSO and added to the plate wells before the addition of other reaction components. The final concentration of DMSO in the assay is 2%. The PI3K assays are carried out at room temperature in 50 mM HEPES, pH 7.4, 5 mM MgCl2, 50 mM NaCl, 5 mM DTT and CHAPS 0.04%. […] The activity of the product is determined on Fusion-alpha microplate reader (Perkin-Elmer). […]
The kinase reactions are conducted in clear-bottom 96-well plate from Thermo Fisher Scientific in a final volume of 24 μL. […] After the plate sealing, the radioactivity of the product is determined by scintillation counting on Topcount (Perkin-Elmer). […]

T1 sequence (O00329 whole entry): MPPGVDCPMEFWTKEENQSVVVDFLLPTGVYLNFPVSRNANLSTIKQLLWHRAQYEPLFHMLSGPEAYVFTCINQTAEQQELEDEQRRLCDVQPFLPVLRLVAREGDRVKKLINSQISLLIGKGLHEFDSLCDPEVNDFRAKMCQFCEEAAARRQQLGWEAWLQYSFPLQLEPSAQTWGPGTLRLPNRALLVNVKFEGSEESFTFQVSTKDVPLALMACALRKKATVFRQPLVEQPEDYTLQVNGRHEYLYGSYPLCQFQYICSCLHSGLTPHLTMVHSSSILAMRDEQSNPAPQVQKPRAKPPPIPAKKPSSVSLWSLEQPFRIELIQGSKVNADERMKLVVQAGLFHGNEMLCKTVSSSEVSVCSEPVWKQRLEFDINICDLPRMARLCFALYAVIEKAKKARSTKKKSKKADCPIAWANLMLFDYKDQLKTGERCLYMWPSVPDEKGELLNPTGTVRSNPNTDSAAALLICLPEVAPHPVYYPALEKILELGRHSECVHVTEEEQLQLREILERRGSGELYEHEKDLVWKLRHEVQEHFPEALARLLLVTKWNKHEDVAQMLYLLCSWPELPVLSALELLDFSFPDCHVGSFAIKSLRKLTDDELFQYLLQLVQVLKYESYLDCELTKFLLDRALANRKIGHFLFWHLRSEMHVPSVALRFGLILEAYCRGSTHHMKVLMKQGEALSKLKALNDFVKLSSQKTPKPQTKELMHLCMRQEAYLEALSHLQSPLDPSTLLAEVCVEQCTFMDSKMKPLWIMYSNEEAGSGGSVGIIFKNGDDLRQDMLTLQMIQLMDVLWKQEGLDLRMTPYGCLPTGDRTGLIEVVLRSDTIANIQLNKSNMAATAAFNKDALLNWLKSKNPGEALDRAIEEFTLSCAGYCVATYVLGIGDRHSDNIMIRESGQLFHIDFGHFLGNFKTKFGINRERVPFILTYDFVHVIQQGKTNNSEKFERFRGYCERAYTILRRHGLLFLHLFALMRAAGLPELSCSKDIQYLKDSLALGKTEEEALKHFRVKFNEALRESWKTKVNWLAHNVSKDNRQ
T1 sequence (P27986 whole entry partner): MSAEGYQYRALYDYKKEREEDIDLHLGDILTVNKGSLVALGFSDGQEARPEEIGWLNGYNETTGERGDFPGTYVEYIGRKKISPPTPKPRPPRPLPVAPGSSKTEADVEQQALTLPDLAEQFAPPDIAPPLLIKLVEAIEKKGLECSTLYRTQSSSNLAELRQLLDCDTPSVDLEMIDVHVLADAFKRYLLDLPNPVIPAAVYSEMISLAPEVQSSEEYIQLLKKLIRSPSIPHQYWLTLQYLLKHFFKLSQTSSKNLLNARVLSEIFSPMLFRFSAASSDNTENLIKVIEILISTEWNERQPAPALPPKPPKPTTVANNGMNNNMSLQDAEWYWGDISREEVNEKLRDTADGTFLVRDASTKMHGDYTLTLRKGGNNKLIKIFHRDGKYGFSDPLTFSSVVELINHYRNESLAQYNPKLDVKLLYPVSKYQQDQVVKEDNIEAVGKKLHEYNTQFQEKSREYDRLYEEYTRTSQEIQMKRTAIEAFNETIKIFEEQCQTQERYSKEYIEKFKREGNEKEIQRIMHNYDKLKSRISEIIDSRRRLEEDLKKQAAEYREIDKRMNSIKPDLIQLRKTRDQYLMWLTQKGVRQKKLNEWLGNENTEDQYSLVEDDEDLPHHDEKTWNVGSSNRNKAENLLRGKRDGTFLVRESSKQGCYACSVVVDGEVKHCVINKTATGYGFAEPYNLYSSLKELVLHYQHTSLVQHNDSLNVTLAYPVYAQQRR

## CCOc1c([C@H](C)n2nc(C)c3c(N)ncnc32)cc(Cl)c(F)c1[C@@H]1CNC(=O)O1 [compound of Formula I, (R)-5-(3-((S)-1-(4-amino-3-methyl-1H-pyrazolo[3,4-d]pyrimidin-1-yl)ethyl)-5-chloro-2-ethoxy-6-fluorophenyl)oxazolidin-2-one]
  PI3K inhibition (qualitative statement): found to be PI3K inhibitors
